From patent US9199914B2, “Multiple substituted fluoromethanes as selective and bioactive isosteres” (MEH ASSOCIATES, INC., priority 2010, dated 2015)
In brackets after ≈: the same amount, converted by molar mass. Like-named read-outs stand apart in the source and are kept apart here. Blank lines part the entries; values can stand above or below the compound they belong to.

Columns and labels:
Format in all cases: cell-based
[1] = system: L-6 (rat skeletal myoblast cells); assay: cells
[2] = system: Trypanosoma brucei rhodesiense; STIB 900; assay: microbe, parasite or virus in culture
Plasmodium falciparum K1 = assay: microbe, parasite or virus in culture
[3] = system: T. cruzi Tulahuen C2C4, containing the Lac Z gene; assay: In vitro sensitivity assay: T. cruzi (Lac Z / CPRG, in L-6 cells); settings: Trypanosoma cruzi, L6; Tulahuen C4, amastigotes in L-6 cells
[4] = system: L. donovani MHOM-ET-67/L82, axenic amastigotes; assay: In vitro sensitivity assay: axenic Leishmania donovani (Resazurin)
[5] = MHOM-ET-67/L82, amastigotes, 72 hours, read-out: IC50 Values L. donovani

Structure (SMILES): COc1cc([C@@H]2c3cc4c(cc3[C@H](O)[C@H]3COC(=O)[C@H]23)OCO4)cc(OC)c1OC [podophyllotoxin]
IC50 ([1]; L6, read-out: IC50 Values Cytoxicity): 0.007 µg/mL (≈ 0.0169 µM) | IC50 ([1]; Myoblast, read-out: average IC50): 0.006 µg/mL (≈ 0.0145 µM)

Structure (SMILES): Nc1nc(N)nc(Nc2ccc([As]3SCC(CO)S3)cc2)n1 (stereo not shown) [melarsoprol]
IC50 ([2]; 72 h, read-out: IC50 Values T.b. rhodensiense): 0.003 µg/mL | IC50 ([2]; read-out: average IC50): 0.004 µg/mL

IC50 (Plasmodium falciparum K1; K1, read-out: IC50 Values P. falciparum): 0.059 µg/mL (≈ 0.184 µM) | IC50 (Plasmodium falciparum K1; K1, read-out: average IC50): 0.065 µg/mL (≈ 0.203 µM)
Structure (SMILES): CCN(CC)CCCC(C)Nc1ccnc2cc(Cl)ccc12 (stereo not shown) [chloroquinine, Chloroquine]

Structure (SMILES): O=C(O)CNCCC(F)(F)F [MEH-002, (3,3,3-Trifluoro-propylamino)-acetic acid]
IC50 ([2]; STIB 900, trypomastigotes, 72 h, read-out: IC50 Values T.b. rhodensiense): 10.3 µg/mL (≈ 60.2 µM) | IC50 [3]: > 90 µg/mL | IC50 [4, 5]: > 90 µg/mL | IC50 (Plasmodium falciparum K1; K1, IEF, read-out: IC50 Values P. falciparum): > 5 µg/mL | IC50 ([1]; L6 cells, read-out: IC50 Values Cytoxicity): > 90 µg/mL

IC50 [4, 5]: 0.178 µg/mL (≈ 0.437 µM) | IC50 ([4]; standard drug, protocol value, read-out: average IC50): 0.131 µg/mL (≈ 0.321 µM)
Structure (SMILES): CCCCCCCCCCCCCCCCOP(=O)([O-])OCC[N+](C)(C)C [miltefosine]
